From patent publication US20220047606A1, “TREATMENT METHOD WITH IAP INHIBITOR” (Ascentage Pharma (Suzhou) Co., Ltd., priority 2019, published 2022)

Experiments:
[1] = Phase I dose-escalation study (NCT03585322) in chronic hepatitis B patients: safety; assay type: in vivo, human
Procedure: (§1) Methods: This study (NCT number: NCT03585322) is a multi-center, single-agent, open-label, Phase I dose-escalation study. Chronic hepatitis B (CHB) patients without receiving anti-HBV treatment within 6 months before screening were recruited and administrated with Compound (I) weekly via intravenous infusion (IV) in 4 escalated dosage (7 mg, 12 mg, 20 mg and 30 mg) for 4 weeks followed with 12 weeks follow up. The primary objective of this study is to assess the safety, with secondary outcome measures focused on pharmacokinetics (PK) and Pharmacodynamics (PD) of Compound (I) as monotherapy in CHB patients.

[2] = Phase I dose-escalation study (NCT03585322) in chronic hepatitis B patients: pharmacokinetics; assay type: in vivo, human
Procedure: as §1

hepatitis B virus (HBV) = test: Phase I dose-escalation study (NCT03585322) in chronic hepatitis B patients: pharmacodynamics (HBsAg, HBV DNA); assay type: in vivo, human
Procedure: as §1

[3] = Phase I dose-escalation study (NCT03585322) in chronic hepatitis B patients: other findings (Fibro test score, ALT normalization); assay type: in vivo, human; settings: for Fibro Test Score Changes from baseline to end of follow-up, Mean(SD): 12 weeks follow up
Procedure: as §1

[4] = system: IAPs (inhibitor of apoptosis proteins); test: Preclinical studies: IAP inhibition in vivo and in vitro
chronic HBV infections = test: Preclinical studies: clearance of chronic HBV infection in different models
[5] = 7 mg weekly IV for 4 weeks, n = 3 CHB patients
[6] = 12 mg weekly IV for 4 weeks, n = 9 CHB patients
[7] = 20 mg weekly IV for 4 weeks, N = 6 CHB patients
[8] = 30 mg weekly IV for 4 weeks, N = 6 CHB patients

## CN[C@@H](C)C(=O)N[C@H]1CN(S(=O)(=O)c2cccc(S(=O)(=O)N3CC[C@H]4CC[C@@H](C(=O)NC(c5ccccc5)c5ccccc5)N4C(=O)[C@@H](NC(=O)[C@H](C)NC)C3)c2)CC[C@H]2CC[C@@H](C(=O)NC(c3ccccc3)c3ccccc3)N2C1=O [Compound (I), (5S ,5′S ,8S ,8′S,10aR,10a′R)-3,3′-(1,3-phenylenedisulfonyl)bis(N-benzhydryl-5-((S)-2-(methylamino)propanamido)-6-oxodecahydropyrrolo[1,2-a][1,5]diazocine-8-carboxamide)]
[1]; [5]
  Any Drug-Related TEAE (%): (66.7%)
  Any Drug-Related TEAE N: 2
  SAE (%): (0%)
  SAE N: 0
[1]; [6]
  Any Drug-Related TEAE (%): (33.3%)
  Any Drug-Related TEAE N: 3
  SAE (%): (0%)
  SAE N: 0
[1]; [7]
  Any Drug-Related TEAE (%): (100.0%)
  Any Drug-Related TEAE N: 6
  SAE (%): (0%)
  SAE N: 0
[1]; 30 mg cohort
  patients with grade 2 facial nerve disorder: 1 patient
[1]; 30 mg cohort, 1 patient
  time to recovery from grade 2 facial nerve disorder: ≤ 4 weeks
[1]; [8]
  Any Drug-Related TEAE (%): (83.3%)
  Any Drug-Related TEAE N: 5
  SAE (%): (16.7%)
  SAE N: 1
[1]; all cohorts 7-30 mg weekly IV
  drug-related adverse event: ALT increase, incidence: 26%
  drug-related adverse event: AST increase, incidence: 22%
  drug-related adverse event: infusion site pain, incidence: 15%
  drug-related adverse event: infusion site reaction, incidence: 15%
  drug-related adverse event: total bile acids increase, incidence: 15%
  patients with grade 3 ALT or AST elevation: Four
[1]; ascending doses from 7 mg to 30 mg
  safety and tolerability, overall: safe and well tolerated
[1]; the four patients with grade 3 elevation
  grade 3 ALT or AST elevation, extent: 5-15 × ULN
[2]; 7, 12, 20, 30 mg weekly IV
  PK analysis: plasma exposure versus dose: dose proportional increase in plasma exposure
[2]; weekly IV for 4 weeks
  PK analysis: accumulation after multiple dosing: no accumulation after multiple dosing
Hepatitis B virus (HBV); 5/26 patients
  patients with reduction of HBsAg at ≥0.5 log: 19%
Hepatitis B virus (HBV); 12/26 patients
  patients with reduction of HBsAg at ≥0.2 log: 46%
Hepatitis B virus (HBV); 23 of 26 patients
  patients with decline of HBV DNA: 89%
Hepatitis B virus (HBV); during post-treatment follow-up, 11/23 patients
  patients with prolonged HBsAg reduction: 48%
Hepatitis B virus (HBV); week 4, 17 of 26 patients
  patients with reduction of HBsAg: 65%
[3]; 7 mg weekly IV for 4 weeks, N = 3
  Fibro Test Score Changes from baseline to end of follow-up, Mean(SD): 0.27 kPa
[3]; 12 mg weekly IV for 4 weeks, N = 3
  Fibro Test Score Changes from baseline to end of follow-up, Mean(SD): −1.80 kPa
[3]; 20 mg weekly IV for 4 weeks, N = 6
  Fibro Test Score Changes from baseline to end of follow-up, Mean(SD): −0.33 kPa
[3]; 30 mg weekly IV for 4 weeks, N = 2
  Fibro Test Score Changes from baseline to end of follow-up, Mean(SD): −4.05 kPa
[3]; 10/22 patients
  patients with ALT normalization: 46%
[4]
  inhibition of IAPs: inhibits IAPs in vivo and in vitro
Chronic HBV infections
  clearance of chronic HBV infections: can clear chronic HBV infections in different models
